The structures appear in SMILES notation.

A word on the Ki: it is the equilibrium dissociation constant of an inhibitor or competing ligand from its target. High values mean weaker binding, low ones tighter binding. As a reminder, the EC25 is the concentration at which the effect reaches the 25% level.

Experiment [1] has as its target T1, Alpha-1A adrenergic receptor (Homo sapiens, UniProt P35348).
T1 sequence (P35348 whole entry): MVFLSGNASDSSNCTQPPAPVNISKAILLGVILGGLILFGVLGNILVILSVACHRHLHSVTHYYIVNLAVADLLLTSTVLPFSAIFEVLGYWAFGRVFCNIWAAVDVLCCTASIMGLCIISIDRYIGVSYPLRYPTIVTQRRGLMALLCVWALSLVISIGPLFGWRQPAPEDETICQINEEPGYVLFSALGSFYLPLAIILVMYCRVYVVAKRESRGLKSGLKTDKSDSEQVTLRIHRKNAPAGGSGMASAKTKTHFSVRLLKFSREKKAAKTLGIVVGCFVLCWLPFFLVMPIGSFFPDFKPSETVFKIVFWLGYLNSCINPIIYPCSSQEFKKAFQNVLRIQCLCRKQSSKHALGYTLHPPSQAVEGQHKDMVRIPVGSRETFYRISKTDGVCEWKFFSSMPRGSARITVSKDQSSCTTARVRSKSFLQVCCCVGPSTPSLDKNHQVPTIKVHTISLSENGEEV
As to the kind of experiment: Displacement of [125I]HEAT from human Alpha-1C adrenergic receptor expressed in CHO cells. The experiment is classed as cell-based. Background: In a radioligand displacement assay an active substance lowers the binding of a labelled ligand.

The target in experiment [2] is T2, Alpha-1D adrenergic receptor (Homo sapiens, UniProt P25100).
T2 sequence (P25100 whole entry): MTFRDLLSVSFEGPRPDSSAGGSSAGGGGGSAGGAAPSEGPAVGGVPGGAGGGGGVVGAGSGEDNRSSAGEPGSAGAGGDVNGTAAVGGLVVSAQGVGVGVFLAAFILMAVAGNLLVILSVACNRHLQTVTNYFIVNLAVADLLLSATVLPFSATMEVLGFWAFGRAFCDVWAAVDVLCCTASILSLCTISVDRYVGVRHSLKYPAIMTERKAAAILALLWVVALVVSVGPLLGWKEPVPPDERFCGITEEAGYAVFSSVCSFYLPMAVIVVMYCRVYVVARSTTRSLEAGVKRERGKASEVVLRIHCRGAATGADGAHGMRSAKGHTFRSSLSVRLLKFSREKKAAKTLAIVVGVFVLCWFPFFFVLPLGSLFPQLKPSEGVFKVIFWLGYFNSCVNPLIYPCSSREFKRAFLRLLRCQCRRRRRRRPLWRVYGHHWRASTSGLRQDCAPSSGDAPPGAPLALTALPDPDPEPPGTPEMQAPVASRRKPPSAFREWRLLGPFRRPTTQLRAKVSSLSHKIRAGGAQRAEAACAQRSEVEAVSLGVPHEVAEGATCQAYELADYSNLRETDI
As to the kind of experiment: Displacement of [125I]HEAT from human Alpha-1D adrenergic receptor expressed in HEK cells. The experiment is classed as cell-based, HEK293.

The target in experiment [3] is T3, Alpha-1B adrenergic receptor (Homo sapiens, UniProt P35368).
T3 sequence (P35368 whole entry): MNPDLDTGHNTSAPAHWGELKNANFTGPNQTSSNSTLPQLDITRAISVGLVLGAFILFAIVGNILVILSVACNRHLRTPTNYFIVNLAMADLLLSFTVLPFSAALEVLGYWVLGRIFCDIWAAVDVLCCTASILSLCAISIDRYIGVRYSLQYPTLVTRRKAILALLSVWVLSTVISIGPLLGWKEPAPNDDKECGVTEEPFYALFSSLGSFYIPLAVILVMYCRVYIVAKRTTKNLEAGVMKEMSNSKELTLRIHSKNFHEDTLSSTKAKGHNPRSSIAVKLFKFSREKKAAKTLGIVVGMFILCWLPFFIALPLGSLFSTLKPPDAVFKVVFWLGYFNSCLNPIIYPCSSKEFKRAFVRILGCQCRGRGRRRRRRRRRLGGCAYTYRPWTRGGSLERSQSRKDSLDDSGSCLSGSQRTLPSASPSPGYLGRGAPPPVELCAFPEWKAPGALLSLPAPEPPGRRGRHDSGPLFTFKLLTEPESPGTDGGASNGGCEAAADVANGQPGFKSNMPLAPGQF
As to the kind of experiment: Displacement of [125I]HEAT from human Alpha-1B adrenergic receptor expressed in LM cells. The experiment is classed as cell-based.

The species entered for experiment [4] is Mustela putorius furo. As to the kind of experiment: In vitro concentration required to increase the effective refractory period (ERP) above baseline was evaluated using isolated ferret papillary muscle preparations. It is filed as functional. As to conditions: Muscle tissue.
Experiment [5] addresses T1, Alpha-1A adrenergic receptor. Kind of experiment: Ability to displace [125I]HEAT from cloned human Alpha-1A adrenergic receptor stably expressed in CHO cells. It is filed as cell-based.
For experiment [6] the target is unchanged. As to the kind of experiment: Binding affinity against Alpha-1A adrenergic receptor in human prostatic tissue.
Experiment [7] has as its target T4, Alpha-1A adrenergic receptor (Rattus norvegicus, UniProt P43140).
T4 sequence (P43140 whole entry): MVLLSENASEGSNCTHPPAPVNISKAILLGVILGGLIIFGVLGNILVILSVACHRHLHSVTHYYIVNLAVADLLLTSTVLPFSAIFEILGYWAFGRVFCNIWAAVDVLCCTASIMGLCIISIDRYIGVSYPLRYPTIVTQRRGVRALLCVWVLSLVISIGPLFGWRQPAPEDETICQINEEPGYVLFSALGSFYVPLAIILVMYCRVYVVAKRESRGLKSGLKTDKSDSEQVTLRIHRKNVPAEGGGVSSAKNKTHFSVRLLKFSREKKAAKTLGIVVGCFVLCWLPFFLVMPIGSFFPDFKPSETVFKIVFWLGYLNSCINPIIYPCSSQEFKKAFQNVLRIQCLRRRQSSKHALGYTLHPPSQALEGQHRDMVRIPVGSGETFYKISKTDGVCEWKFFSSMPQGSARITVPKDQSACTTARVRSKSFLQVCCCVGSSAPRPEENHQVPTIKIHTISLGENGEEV
As to the kind of experiment: Binding affinity against Alpha-1A adrenergic receptor in rat prostatic tissue.

For the compound `O=C1OC2(CCN(CCc3cccc4ccccc34)CC2)Cc2ccccc21`, the Ki in experiment [1] amounted to 45 nM; in experiment [2], 60 nM; in experiment [3] it was 137 nM.

Take `O=C1c2ccccc2CC12CCN(CCc1cccc3ccccc13)CC2`: the inhibitory constant (Ki) in experiment [1] worked out at 31 nM; in experiment [2], 149 nM; in experiment [3], 49 nM.

On to `CS(=O)(=O)Nc1ccc2c(c1)OC1(CCN(CCc3cccc4ccccc34)CC1)CC2=O`, for which the Ki in experiment [1] worked out at 20 nM; in experiment [2], 136 nM; in experiment [3] it was 149 nM. This compound gave an EC25 in experiment [4] of 9000 nM.

On to `CS(=O)(=O)Nc1ccc2c(c1)OC1(CCN(CCc3ccccn3)CC1)CC2=O`, for which the Ki in experiment [1] is 1670 nM; in experiment [2], 3250 nM; in experiment [3] it was over 2000 nM. This compound also had a concentration for an effect of 25% (EC25) in experiment [4] of 6600 nM.

Regarding `C1=CC2(CCN(CCc3cccc4ccccc34)CC2)Oc2ccccc21`, the results for the inhibition constant (Ki) in experiment [1], in experiment [2] and in experiment [3] were 71 nM, 200 nM and 53 nM, respectively.

On to `O=C1CC2(CCN(CCc3ccccn3)CC2)Oc2ccccc21`, for which the inhibition constant (Ki) in experiment [1] worked out at 793 nM; in experiment [2], 1520 nM; in experiment [3], 1290 nM. Further, the 25% effect level in experiment [4] (EC25) was put at 160 nM.

Consider `O=C1CC2(CCN(CCc3cccc4ccccc34)CC2)Oc2ccc(NS(=O)(=O)Cc3ccccc3)cc21`, for which the inhibition constant Ki in experiment [1] worked out at 13 nM; in experiment [2] it was 53 nM; in experiment [3] it was 24 nM. In experiment [4], the concentration for an effect of 25% (EC25) is over 30000 nM.

Consider `COc1ccccc1CCN1CCC2(CC1)CC(=O)c1ccc(NS(C)(=O)=O)cc1O2`, for which the inhibitory constant (Ki) in experiment [1] was found to be 6.5 nM; in experiment [2], 94 nM; in experiment [3], 175 nM. For the same compound, the EC25 in experiment [4] stood at 3800 nM.

Regarding `Cc1[nH]c2ccccc2c1CCN1CCC2(CC1)CC(=O)c1ccc(NS(C)(=O)=O)cc1O2`, the Ki in experiment [1] was 8 nM; in experiment [2] it was 115 nM; in experiment [3], 221 nM. Further, the EC25 in experiment [4] was over 30000 nM.

With `O=C1CC2(CCN(CCc3cccc4ccccc34)CC2)Oc2ccccc21`, the Ki was found to be 53 nM in experiment [1], 67 nM in experiment [2] and 48 nM in experiment [3].

Take `Cc1noc(C)c1S(=O)(=O)Nc1ccc2c(c1)C(=O)CC1(CCN(CCc3cccc4ccccc34)CC1)O2`: the Ki in experiment [2] turned out to be 18 nM; in experiment [5], 0.69 nM; in experiment [6], 10 nM; in experiment [7], 10 nM; in experiment [3], 24 nM. In experiment [4], the EC25 is over 30000 nM.

Turning to `CS(=O)(=O)Nc1ccc2c(c1)C(=O)CC1(CCN(CCc3ccccn3)CC1)O2`, the inhibition constant Ki in experiment [1] was over 2000 nM; in experiment [2], 3840 nM; in experiment [3] it was over 2000 nM. Besides, the 25% effect concentration (EC25) in experiment [4] worked out at 33 nM.

For the compound `Cn1cnc(S(=O)(=O)Nc2ccc3c(c2)C(=O)CC2(CCN(CCc4cccc5ccccc45)CC2)O3)c1`, the inhibition constant Ki amounted to 8 nM in experiment [1], 24 nM in experiment [2] and 53 nM in experiment [3]. The EC25 in experiment [4] was over 30000 nM.

For the compound `c1ccc2c(c1)CCC1(CCN(CCc3cccc4ccccc34)CC1)O2`, the Ki came to 56 nM in experiment [1], 99 nM in experiment [2] and 55 nM in experiment [3].

Values taken from ChEMBL document CHEMBL1132031, “4-Oxospiro[benzopyran-2,4'-piperidines] as selective alpha 1a-adrenergic receptor antagonists” (Bioorg Med Chem Lett, 1999).
